# Laboratory results published in PubChem BioAssay AID1996.
# Details: buffer; pH 7.4; 200.0 µM
row,solubility kinetic,SMILES
1,3.5 µg/mL,Fc1ccc(-c2nc(-c3cnccn3)no2)c(Cl)c1
2,1.5 µg/mL,CS(=O)(=O)c1ccc2nc(NC(=O)c3ccccc3)sc2c1
3,5.8 µg/mL,Cc1cc2sc3nc(=O)n(-c4ccccc4)c(=O)n3c2cc1C
4,> 46.1 µg/mL,CCOc1ccc(C(=O)OCC(=O)NCC2CCCO2)cc1 (stereo unspecified)
5,52.4 µg/mL,CCOC(=O)CSCc1csc(CC(=O)Nc2ccccc2C)n1
6,5.8 µg/mL,CCC(C(=O)Nc1ccsc1C(=O)OC)c1ccccc1 (stereo unspecified)
7,> 38.6 µg/mL,CSc1ccccc1NC(=O)Cc1ccccc1
8,31.9 µg/mL,Cl.Nc1cccc(Nc2ncnc3ccccc23)c1
9,37.8 µg/mL,COc1ccc(-c2noc(CNC(=O)c3ccoc3C)n2)cc1
10,> 61.6 µg/mL,CCCCn1c(N)c(N(C)C(=O)c2c(C)nn(-c3ccccc3)c2C)c(=O)[nH]c1=O
11,> 63.6 µg/mL,Cn1c(=O)c2c(ncn2CC(=O)OCC(=O)Nc2ccc(F)cc2Cl)n(C)c1=O
12,4.2 µg/mL,O=C1NC(=Nc2ccccc2Cl)S/C1=C\c1cccc([N+](=O)[O-])c1
13,42.2 µg/mL,Cc1noc(C)c1C(=O)OCC(=O)Nc1ccc(C(N)=O)cc1
14,0.3 µg/mL,Cc1cccc(NC(=O)CSc2nc(C3CC3)nc3ccccc23)c1
15,> 28.7 µg/mL,COc1cccc2cc(C(N)=O)oc12
16,48.6 µg/mL,COc1ccc(S(=O)(=O)N2CCN(C(=O)C3CC3)CC2)cc1
17,35.5 µg/mL,COC(=O)c1sc(NC(=O)c2cc(C)on2)nc1C
18,1.8 µg/mL,COc1ccc(-c2csc(NC(=O)Nc3ccccc3)n2)cc1

row,solubility kinetic,SMILES
1,> 41.7 µg/mL,COc1ccc(S(=O)(=O)Nc2ccccn2)cc1C
2,3.1 µg/mL,O=C(NCc1ccc2c(c1)OCO2)Nc1ccc(F)cc1
3,2.3 µg/mL,Brc1ccc(COc2cccc3cccnc23)cc1
4,5.9 µg/mL,CC1(C)Cc2nc3scc(NC(=O)c4ccccc4)c3cc2CO1
5,> 45 µg/mL,COC(=O)c1scc(C)c1NC(=O)c1cccc(C#N)c1
6,3.3 µg/mL,Nc1nc(-c2cc3ccccc3o2)cs1
7,1.6 µg/mL,CC(=O)Nc1cc(-c2nc3ccccc3o2)ccc1Cl
8,> 32.3 µg/mL,COc1cc(C(N)=O)cc(Cl)c1OC
9,< 0.4 µg/mL,COc1ccc2oc(=Nc3cc(F)ccc3F)c(C(N)=O)cc2c1
10,> 42 µg/mL,COc1cnc(NS(=O)(=O)c2ccc(N)cc2)nc1
11,> 42.5 µg/mL,COc1cc(CC2C(=O)Nc3ccccc32)cc(C)c1O (stereo unspecified)
12,< 0.2 µg/mL,CCOc1ccc(NC(=O)Nc2cccc(C)n2)cc1
13,2 µg/mL,O=C1NC(=S)N(C(=O)c2ccc(F)cc2)/C1=C/c1cccnc1
14,1.7 µg/mL,Cc1ccc2c(CN(C)Cc3ccccc3)cc(=O)oc2c1C
15,1 µg/mL,Cc1ccc(-c2onc3ccc(C4OCCO4)cc23)cc1
16,> 48.1 µg/mL,COc1ccc(CNC(=O)C2CCC(=O)N2C(C)C)c(OC)c1 (stereo unspecified)
17,3.3 µg/mL,Fc1ccccc1CNC(=S)NCc1ccc(Cl)cc1

# Continued, compound first:
row,SMILES,solubility kinetic
1,Cc1cc(C)n2nc(C(=O)NNC(=O)c3ccccc3)nc2n1,> 46.5 µg/mL
2,O=C(OCC(=O)N1CCOCC1)c1ccc(Br)cc1,> 49.2 µg/mL
3,O=C1CCC(C(=O)Nc2cccc(Br)c2)N1 (stereo unspecified),> 42.5 µg/mL
4,Cc1cc(C)cc(N2CC(C)Cn3c2nc2c3c(=O)[nH]c(=O)n2C)c1 (stereo unspecified),13 µg/mL
5,CN(C(=O)Cn1nc(C(=O)O)c2ccccc2c1=O)C1CCCCC1,> 51.5 µg/mL
6,CCOC(=O)c1c(NC(=O)C2CCCO2)sc(C)c1C (stereo unspecified),30 µg/mL
7,CCCc1c(O)nc(SCC(=O)O)[nH]c1=O,> 36.6 µg/mL
8,CC(C)n1c(C(F)(F)F)nc2cc(C(=O)N3CCOCC3)ccc21,> 51.2 µg/mL
9,CC1CN(CC(=O)NCc2ccc(Cl)cc2)CC(C)O1 (stereo unspecified),> 44.5 µg/mL
10,S=c1[nH]c2ccccc2n1Cc1ccccc1,4.8 µg/mL
11,O=C1CC(Nc2cc(=O)[nH]c(=O)[nH]2)C(=O)N1c1ccccc1Cl (stereo unspecified),39.4 µg/mL
12,O=C(COC(=O)c1cncc(Br)c1)NC12CC3CC(CC(C3)C1)C2,1.4 µg/mL
13,Clc1ccc(N=C2SCCS2)cc1,11 µg/mL
14,Oc1ccc2ccccc2c1CN1CCOCC1,> 36.5 µg/mL
15,CCCCC(=O)N=c1sc2c(OC)ccc(OC)c2n1C,< 0.3 µg/mL
16,Cl.Oc1ccccc1C1NCc2ccccc2-n2cccc21 (stereo unspecified),32.2 µg/mL
17,CCC(C)[C@H](NC(=O)N1CCC(C)CC1)C(=O)O (stereo partly specified),> 38.5 µg/mL
18,O=C(NCc1cccs1)C1CCCN(C(=O)Nc2ccccc2)C1 (stereo unspecified),21.7 µg/mL
19,O=C(CSc1nc2ccccc2o1)NC1CCCC1,> 41.5 µg/mL
20,CCN(CC)c1nc(N2CCN(C)CC2)nc2ccccc12.Cl,50.1 µg/mL
21,COCCNc1nc2nonc2nc1N(C)Cc1ccc(C)cc1,> 49.3 µg/mL
22,O=C(NNC(=S)NCCCN1CCOCC1)c1ccncc1,> 48.5 µg/mL
23,CCCCS(=O)(=O)N1CCCC(C(=O)Oc2ccccc2)C1 (stereo unspecified),13.9 µg/mL
24,COc1cc(C(=O)NCCNC(=O)c2cnccn2)cc(OC)c1OC,39.4 µg/mL
25,O=C(Nc1ccc(O)cc1)c1ccc(NC(=O)c2cccs2)cc1,0.8 µg/mL
26,O=C(NC1CC1)C1CCN(C(=O)c2ccc(Cl)cc2Cl)CC1,> 51.2 µg/mL
